Legend:
[1] = target: T1, CCR2 (Homo sapiens, UniProt P41597); assay: CCR2 in vitro test: intracellular calcium signal detected by FLIPR; type: cell-based; conditions: HEK293 cells expressing CCR2, agonist MCP-1 at EC80, calcium signal
T1 construct: expressed in transfected cells; host or cells: HEK293, clone C7, passage P6
Procedure: (§1) Experimental Example 1: CCR2/CCR5 In Vitro Test
(§2) The intracellular calcium signal was detected by FLIPR, and the IC50 value of the compound was used as an index to evaluate the inhibitory effect of the compound on CCR2 and CCR5 receptors.
(§3) 1. Cell line: The cells were inoculated and incubated in a 5% CO2 incubator at 37° C. overnight.
(§4) CCR2/CCR5 density: 1 M (20 k/well)
(§5) 2. Reagents: Fluo-4 Direct, (Invitrogen, Cat #F10471)
(§6) The compound was dissolved in DMSO to prepare a 10 mM solution, and the compound solution was placed in a nitrogen box.
(§7) Agonist reference compounds:
(§8) Preparation of probenecid in FLIPR assay buffer: 1 mL of FLIPR assay buffer was added to […] of probenecid to prepare a 250 mM solution, which is prepared fresh daily.
(§9) 2× (8 μM) Fluo-4 Direct™ Loading Buffer (per 10 mL) • Thaw a bottle of Fluo-4 Direct™ crystal (F10471). • Add 10 mL of FLIPR assay buffer to the vial. • Add 0.2 mL of probenecid to each 10 mL of Fluo-Direct. The final concentration of the assay was 2.5 mM. • Rotate it and place for >5 minutes (in absence of light). • Prepare fresh daily.
(§10) MCP-1 was diluted in FLIPR assay buffer 1:2 into 10 points, starting at 0.5 uM (final 100 nM). RANTES was diluted in FLIPR assay buffer 1:3 into 10 points, starting at 0.5 uM (final 100 nM). 20 uL of serially diluted compound buffer was added to each well of the DRC plate according to the compound plate map.
(§11) Standard compound was diluted in DMSO 1:3 into 11 points, starting at 1 mM. Test compound was diluted in DMSO 1:3 into 11 points, starting at 2 mM. 250 nL of compound solution was transferred into a cell plate using Echo (Greiner #781946).
(§12) (c) Take the cell plate out of the incubator, and gently dispense 20 uL of 2× Fluo-4 Direct wash-free loading buffer into a 384-well cell culture plate using a pipette. The final cell plate is 40 μL in volume.
(§13) (d) Incubate for 50 minutes at 37° C. under 5% CO2, and for 10 minutes at room temperature.
(§14) (e) Take the cell plate out of the incubator, and place it in FLIPR. Place the composite plate and the tip box in FLIPR.
(§15) (f) For DRC plate: • 1) Run the program on FLIPRTETRA. • 2) Read the fluorescent signal. • 3) Transfer 10 μL of compound from the DRC plate to the cell plate. • 4) Read the fluorescent signal. • 5) Calculate the “maximum−minimum” from Read 90 to the maximum allowed. Use FLIPR to calculate the EC80 value of each cell line. • 6) Prepare 5×EC80 concentration of the agonist reference compound.
(§16) (g) For the composite plate (1-add): • 1) Run the program on FLIPRTETRA. • 2) Transfer 10 μl, of 5×EC80 concentration of the agonist reference compound from the composite plate to the cell plate. • 3) Read the fluorescent signal. • 4) Calculate the “maximum−minimum” from Read 90 to the maximum allowed.
(§17) (h) Analyze the data using Prism, and calculate the IC50 value of the compound.

[2] = target: T2, CCR5 (Homo sapiens, UniProt P51681); assay: CCR5 in vitro test: intracellular calcium signal detected by FLIPR; type: cell-based; conditions: HEK293 cells expressing CCR5, agonist RANTES at EC80, calcium signal
T2 construct: expressed in transfected cells; host or cells: HEK293, clone C13, passage P4
Procedure: as §1, §2, §3, §4, §5, §6, §7, §8, §9, §10, §11, §12, §13, §14, §15, §16, §17

T2 sequence (P51681 whole entry, species assumed): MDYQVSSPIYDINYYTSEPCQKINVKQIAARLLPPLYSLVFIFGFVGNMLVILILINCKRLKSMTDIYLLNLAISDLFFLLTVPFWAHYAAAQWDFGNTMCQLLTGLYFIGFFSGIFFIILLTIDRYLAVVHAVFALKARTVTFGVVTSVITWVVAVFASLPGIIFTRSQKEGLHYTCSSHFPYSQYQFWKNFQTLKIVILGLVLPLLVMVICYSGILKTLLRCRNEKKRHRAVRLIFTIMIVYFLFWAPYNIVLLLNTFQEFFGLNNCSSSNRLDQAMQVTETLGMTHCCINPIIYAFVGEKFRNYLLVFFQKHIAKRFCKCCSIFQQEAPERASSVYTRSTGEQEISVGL
T1 sequence (P41597 whole entry, species assumed): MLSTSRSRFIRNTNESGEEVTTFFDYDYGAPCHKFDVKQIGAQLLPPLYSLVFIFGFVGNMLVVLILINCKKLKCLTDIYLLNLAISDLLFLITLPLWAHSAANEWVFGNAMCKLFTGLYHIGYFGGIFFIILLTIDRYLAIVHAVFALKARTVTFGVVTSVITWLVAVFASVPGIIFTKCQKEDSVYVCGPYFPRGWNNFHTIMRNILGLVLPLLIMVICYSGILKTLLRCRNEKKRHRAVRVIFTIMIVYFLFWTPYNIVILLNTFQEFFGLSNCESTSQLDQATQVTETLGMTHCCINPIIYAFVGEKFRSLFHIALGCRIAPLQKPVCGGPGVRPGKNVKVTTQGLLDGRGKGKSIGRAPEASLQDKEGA

| IC50 [1] [nM] | IC50 [2] [nM] | Compound |
| --- | --- | --- |
| 3.9 | 10.1 | CCCCOCCOc1ccc(-c2cc(C)cc(/C=C/C(=O)Nc3ccc([S@+]([O-])Cc4c(C)ncn4CC)cc3)c2)cc1 [WX092] |
| 300 | 15.9 | CCCCOc1ccc(-c2ccc(Cl)c(/C=C/C(=O)Nc3ccc([S+]([O-])Cc4cncn4CC(C)C)cc3)c2)cc1 (stereo not drawn) [WX030] |
| 75.1 | 4.5 | CCCCOCCOc1ccc(-c2ccc(Cl)c(/C=C/C(=O)Nc3ccc([S@@+]([O-])Cc4cncn4CCC)cc3)c2)cc1 [WX016] |
| 24.7 | 3.5 | CCCCOCCOc1ccc(-c2ccc([S+]([O-])C(C)C)c(/C=C/C(=O)Nc3ccc([S@@+]([O-])Cc4c(C)ncn4CC)cc3)c2)cc1 (stereo partly drawn) [WX057] |
| 167 | 34.2 | CCCCOCCOc1ccc(-c2cccc(/C=C/C(=O)Nc3ccc([S+]([O-])Cc4cncn4CC(C)C)cc3)c2)cc1 (stereo not drawn) [WX029] |
| 51 | 5.4 | CCCCOCCOc1ccc(-c2cccc(/C(C)=C/C(=O)Nc3ccc([S@@+]([O-])Cc4cncn4CCC)cc3)c2)cc1 [WX012] |
| 49.6 | 68 | CCCOCCOc1ccc(-c2ccc(OC)c(/C=C/C(=O)Nc3ccc([S@@+]([O-])Cc4c(C)ncn4CC)cc3)c2)cc1 [WX065] |
| 16.8 | 0.9 | CCCOCCOc1ccc(-c2ccc(OCC)c(/C=C/C(=O)Nc3ccc([S@@+]([O-])Cc4cncn4CCC)cc3)c2)cc1 [WX067] |
| 62.2 | 44.2 | CCCn1cncc1C[S@+]([O-])c1ccc(NC(=O)/C=C/c2cccc(-c3ccc(N4CCCC4)cc3)c2)cc1 [WX037] |
| 12.6 | 20.8 | CCCOCCOc1ccc(-c2ccc(OC)c(/C=C/C(=O)Nc3ccc([S@@+]([O-])Cc4cncn4CCC)cc3)c2)cc1 [WX050] |
| 70.1 | 760 | CCCCOCCOc1ccc(-c2ccc(OC)c(/C=C/C(=O)Nc3ccc([S@+]([O-])Cc4cncn4CC)cc3)c2)cc1 [WX039] |
| 80.8 | 11.9 | CCCOc1ccc(-c2ccc(OC(F)F)c(/C=C/C(=O)Nc3ccc([S@@+]([O-])Cc4cncn4CCC)cc3)c2)cc1 [WX052] |
| 21.6 | 3 | CCCCOCCOc1ccc(-c2ccc(F)c(/C=C/C(=O)Nc3ccc([S@@+]([O-])Cc4cncn4CCC)cc3)c2)cc1 [WX003] |
| 61 | 2.6 | CCCCOCCOc1ccc(-c2ccc(C)c(/C=C/C(=O)Nc3ccc([S@@+]([O-])Cc4cncn4CCC)cc3)c2)cc1 [WX011] |
| 9.3 | 50.9 | CCCCOCCOc1ccc(-c2cccc(/C=C/C(=O)Nc3ccc([S+]([O-])Cc4cncn4CC)cc3)c2)cc1 (stereo not drawn) [WX019] |
| 53.4 | 11.4 | CCCCOCCOc1ccc(-c2ccc(OC(F)F)c(/C=C/C(=O)Nc3ccc([S@@+]([O-])Cc4c(C)ncn4CCC)cc3)c2)cc1 [WX082] |
| 258 | 7.9 | CCCCOCCOc1ccc(-c2ccc(F)c(/C(C)=C/C(=O)Nc3ccc([S@@+]([O-])Cc4cncn4CCC)cc3)c2)cc1 [WX014] |
| 18.5 | 4.1 | CCCCOCCOc1ccc(-c2ccc(C(F)(F)F)c(/C=C/C(=O)Nc3ccc([S@@+]([O-])Cc4cncn4CCC)cc3)c2)cc1 [WX060] |
| 205 | 10.1 | CCCn1cncc1C[S@+]([O-])c1ccc(NC(=O)/C=C/c2cc(-c3ccc(OCCCF)cc3)ccc2Cl)cc1 [WX022] |
| 22.5 | 21.4 | CCCCOCCOc1ccc(-c2ccc(C)c(/C=C/C(=O)Nc3ccc([S+]([O-])Cc4cncn4CC)cc3)c2)cc1 (stereo not drawn) [WX041] |
| 84.5 | 20.5 | CCCOc1ccc(-c2ccc(OC(F)F)c(/C=C/C(=O)Nc3ccc([S@@+]([O-])Cc4c(C)ncn4CC)cc3)c2)cc1 [WX062] |

| IC50 [1] [nM] | IC50 [2] [nM] | Compound |
| --- | --- | --- |
| 15 | – | CCCCOCCOc1ccc(-c2cc(F)c(OCC)c(/C=C/C(=O)Nc3ccc([S@+]([O-])Cc4c(C)ncn4CC)cc3)c2)cc1 [WX089] |
| 28.2 | 5.7 | CCCCOCCOc1ccc(-c2ccc(SC(C)C)c(/C=C/C(=O)Nc3ccc([S@@+]([O-])Cc4cncn4CCC)cc3)c2)cc1 [WX058] |
| 37.1 | 53.3 | CCCCOCCOc1ccc(-c2cccc(/C=C/C(=O)Nc3ccc([S+]([O-])Cc4cncn4CC4CC4)cc3)c2)cc1 (stereo not drawn) [WX023] |
| 8.9 | 15.2 | CCCCOCCOc1ccc(-c2ccc(OC(F)F)c(/C=C/C(=O)Nc3ccc([S@@+]([O-])Cc4c(C)ncn4CC)cc3)c2)cc1 [WX061] |
| 9.9 | 8.5 | CCCCOCCOc1ccc(-c2cc(C)cc(/C=C/C(=O)Nc3ccc([S@@+]([O-])Cc4cncn4CCC)cc3)c2)cc1 [WX059] |
| 42.2 | 8.5 | CCCCOCCOc1ccc(-c2ccc(OC)c(/C=C/C(=O)Nc3ccc([S@@+]([O-])Cc4c(C)ncn4CCC)cc3)c2)cc1 [WX076] |
| 250 | 9.1 | CCCCOCCOc1ccc(-c2cc(/C=C/C(=O)Nc3ccc([S@@+]([O-])Cc4cncn4CCC)cc3)c(OC)cc2Cl)cc1 [WX043] |
| 6.5 | 10.1 | CCCOCCOc1ccc(-c2ccc(OC)c(/C=C/C(=O)Nc3ccc([S@+]([O-])Cc4c(C)ncn4CC)cc3)c2)cc1 [WX066] |
| 63.2 | 9.4 | CCCCOc1ccc(-c2cccc(/C=C/C(=O)Nc3ccc([S@@+]([O-])Cc4cncn4CCC)cc3)c2)cc1 [WX009] |
| 11.9 | 5.9 | CCCCOCCOc1ccc(-c2ccc(C3CCCC3)c(/C=C/C(=O)Nc3ccc([S@@+]([O-])Cc4c(C)ncn4CC)cc3)c2)cc1 [WX072] |
| 68.1 | 8.2 | CCCCOc1ccc(-c2ccc(Cl)c(/C=C/C(=O)Nc3ccc([S+]([O-])Cc4cncn4CC)cc3)c2)cc1 (stereo not drawn) [WX020] |
| 4.5 | 3.4 | CCCCOCCOc1ccc(-c2ccc(C(F)(F)F)c(/C=C/C(=O)Nc3ccc([S@+]([O-])Cc4c(C)ncn4CC)cc3)c2)cc1 [WX071] |
| 65.2 | 6.4 | CCCn1cncc1C[S@+]([O-])c1ccc(NC(=O)/C=C/c2cccc(-c3ccc(OC(C)C)cc3)c2)cc1 [WX007] |
| 43.5 | 7.3 | CCCCOc1ccc(-c2ccc(OC(F)F)c(/C=C/C(=O)Nc3ccc([S@@+]([O-])Cc4cncn4CCC)cc3)c2)cc1 [WX018] |
| 215 | 16.1 | CCCCOCCOc1ccc(-c2cc(/C=C/C(=O)Nc3ccc([S@@+]([O-])Cc4cncn4CCC)cc3)c(OC)c(OC)c2)cc1 [WX035] |
| 5.5 | 6.9 | CCCCOCCOc1ccc(-c2cc(C)c(OC)c(/C=C/C(=O)Nc3ccc([S@+]([O-])Cc4c(C)ncn4CC)cc3)c2)cc1 [WX090] |
| 12.1 | 3.4 | CCCCOCCOc1ccc(-c2ccc(CC)c(/C=C/C(=O)Nc3ccc([S@@+]([O-])Cc4cncn4CCC)cc3)c2)cc1 [WX005] |
| 62 | 65.1 | CCCOc1ccc(-c2cccc(/C=C(\C)C(=O)Nc3ccc([S+]([O-])Cc4nncn4CCC)cc3)c2)cc1 (stereo not drawn) [WX015] |
| 64.9 | 13.3 | CCCCOCCOc1ccc(-c2ccc(OC)c(/C=C/C(=O)Nc3ccc([S@@+]([O-])Cc4cncn4CCC)cc3)c2)c(C)c1 [WX036] |
| 7.6 | 6.4 | CCCCOCCOc1ccc(-c2ccc(OC(F)(F)F)c(/C=C/C(=O)Nc3ccc([S@+]([O-])Cc4c(C)ncn4CC)cc3)c2)cc1 [WX055] |

Source: US11155523B2, “Biphenyl compound as CCR2/CCR5 receptor antagonist” (Medshine Discovery Inc., priority 2016, dated 2021)
